Patent publication US20230390411A1, “CONJUGATE AND USE THEREOF” (NANJING CHEMPION BIOTECHNOLOGY CO., LTD., priority 2021, published 2023)
Starred links: 1 amine or outer side, 2 acyl side, 3 side chain; linkers in the order of their positions; H or OH if unused. Non-standard residues stand in square brackets, D forms with d. Residues, ends and D or L forms follow the SMILES beside them. *: point of attachment. Exatecan = CC[C@@]1(O)C(=O)OCc2c1cc1n(c2=O)Cc2c-1nc1cc(F)c(C)c3c1c2[C@@H](N*)CC3; Dolaproine = CO[C@@H]([C@@H]1CCCN1)[C@@H](C)C(=O)O; Hexanoyl(6-maleimido) = O=C1C=CC(=O)N1CCCCCC(=O)*; Dil = CC[C@H](C)[C@H](NC)[C@@H](CC(=O)O)OC; NHCH2OCH2CO = O=C(COCN[*:1])[*:2]; X1 = C[C@@H](N*)[C@@H](O)c1ccccc1; NMeV = CN[C@H](C(=O)O)C(C)C

System: NCI-N87 cells
Assay: Cytotoxicity assay (CellTiter-Glo)
Assay type: cell-based
Details: 6 days, max 50 nM
Description: When the confluence of cultured NCI-N87 cells reached 70-90%, the cells were digested with trypsin. The trypsin was removed by centrifugation. […] The plate was incubated in a 5% CO2 incubator at 37° C. for 6 days. After the incubation was completed, the cell viability was detected with CellTiter-Glo reagent (Promega, G7573), and the specific cell viability value was measured by a multifunctional microplate reader (PerkinElmer, EnVision).

SMILES | IC50 [nM] | Max Cytotoxicity % [%] | IC50 (Homo sapiens, 144 h) [nM]
CC[C@H](C)[C@@H]([C@@H](CC(=O)N1CCC[C@H]1[C@H](OC)[C@@H](C)C(=O)N[C@H](C)[C@@H](O)c1ccccc1)OC)N(C)C(=O)[C@@H](NC(=O)[C@@H](NC)C(C)C)C(C)C [MMAE, monomethyl auristatin E] (H-[NMeV]V[Dil][Dolaproine]-X1) | 0.13 | 93.50 | 
C=C1C[C@@H]2CC[C@@]34C[C@H]5O[C@H]6[C@@H](O3)[C@H]3O[C@H](CC[C@@H]3O[C@H]6[C@H]5O4)CC(=O)C[C@@H]3[C@@H](OC)[C@@H](C[C@H](O)CN)O[C@H]3C[C@H]3O[C@@H](CC[C@@H]1O2)C[C@@H](C)C3=C [Eribulin, eribulin] |  | 93.99 | 0.22
CC[C@@]1(O)C(=O)OCc2c1cc1n(c2=O)Cc2c-1nc1cc(F)c(C)c3c1c2[C@@H](NC(=O)COCNC(=O)CNC(=O)[C@H](Cc1ccccc1)NC(=O)CNC(=O)CNC(=O)CCCCCN1C(=O)C=CC1=O)CC3 [DS8201 scaffold, Deruxtecan] ({Hexanoyl(6-maleimido)}-GGFG[NHCH2OCH2CO]-Exatecan) |  | 9.38 | 
